Laboratory results from patent publication US8961986B2, “Peptide composition” (Apitope Technology (Bristol) Limited, priority 2000, dated 2015).
Entries after “also recorded” stand apart in the source; their conditions may differ.

What was measured:
[1] = system: 81-111-responsive T-cell line and sub-lines; test: Reactivity of T cell lines and clones from peptide-primed mice to MBP 81-111 region peptides; assay type: cell-based
Description: In order to investigate T cell reactivity to the 81-111 region of MBP, lymph node cells from mice primed with 81-111 are stimulated with 81-111 in vitro and these cells are tested with a panel of overlapping 10-mer peptides with two residue shifts covering the 81-111 region (namely: 81-90, 83-92, 85-94, 87-96, 89-98, 91-100, 93-102, 95-104, 97-106, 99-108 and 101-111). The response pattern to peptides covering the 89-101 show stimulatory capacity for 5 adjacent peptides (N terminal 87-96 through to 95-104) reflecting the presence of at least two (and perhaps three) distinct epitopes.
In order to investigate this region further, three sub-lines are generated from the original 81-111-responsive T-cell line and these are retested with a panel of overlapping 10-mer peptides with one residue shift covering the 84-106 region. The results reveal the existence of three distinct but overlapping T cell epitopes within the 89-101 sequence: 89-94, 92-98 and 95-101 (see FIG. 14).

I-A^S = molecular target: T1, I-A^S (Mus musculus, UniProt P06345+P14437); conditions: cited from earlier work
T1 sequence (P14437 1-233): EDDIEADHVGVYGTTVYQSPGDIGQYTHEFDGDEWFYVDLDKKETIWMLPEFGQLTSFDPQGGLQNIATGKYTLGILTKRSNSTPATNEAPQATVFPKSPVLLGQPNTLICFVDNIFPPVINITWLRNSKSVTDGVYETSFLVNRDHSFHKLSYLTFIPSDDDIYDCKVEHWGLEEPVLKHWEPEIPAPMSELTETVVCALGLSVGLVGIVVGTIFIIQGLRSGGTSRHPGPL
T1 sequence (P06345 28-263): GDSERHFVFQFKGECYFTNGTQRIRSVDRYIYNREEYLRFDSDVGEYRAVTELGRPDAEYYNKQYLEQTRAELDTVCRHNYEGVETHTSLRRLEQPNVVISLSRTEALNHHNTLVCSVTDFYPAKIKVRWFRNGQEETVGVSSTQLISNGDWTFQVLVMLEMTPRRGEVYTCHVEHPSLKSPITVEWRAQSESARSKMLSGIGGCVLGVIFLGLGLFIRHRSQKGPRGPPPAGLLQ

[2] = system: draining lymph node cells; test: Tolerance experiments with 89-101 and 87-96: lymph node cell recall proliferation; assay type: in vivo, Mice
Description: In order to test this possibility tolerance experiments are performed with the 89-101 and 87-96 peptides (FIGS. 15a and b).
Mice received 200 μg of peptide in PBS or PBS alone intraperitoneally on days −8, −6 and −4 prior to 100 μg of peptide in complete Freunds adjuvant on day 0. After 10 days, draining lymph node cells (6×10^5 per well) were cultured in X-Vivo 15 medium supplemented with 5×10^−5M 2-mercaptoethanol and […] L-glutamine with or without antigen for 72 hours. Cultures were pulsed for the final 16 hours with 0.5 μCi ^3H.thymidine and incorporation measured using a liquid scintillation counter. Results are expressed as means counts per minute for triplicate cultures.

[3] = system: experimental autoimmune encephalomyelitis (EAE); conditions: cited from earlier work
[4] = system: MBP-specific T cell clones; test: T cell clone (TCC) proliferation assay, fine mapping of MBP epitopes; assay type: cell-based, human; conditions: TCC from MS patients and healthy individuals, proliferative response
Description: MBP-specific T cell lines (TCL) are generated from 8 MS patients and 2 healthy control donors. PBMC from each subject are separated as described above and plated out at 1×10^6 cells/ml in 6-well plates in the presence of MBP (50 μg/ml); a portion of PBMC from each subject is regularly frozen and stored for subsequent restimulations. Seven days later the cells are fed with fresh medium containing 2% IL-2 (Lymphocult-HT; Biotest LTD., Birmingham, UK), and on day 12 of culture all cells are restimulated with antigen, IL-2 and irradiated (2500 Rad) autologous PBMC as a source of antigen presenting cells (APC), at a cell ratio of 1T cell:5 APC. Cells are expanded in IL-2 every 3-4 days, and on day 14 are restimulated with antigen, IL-2 and PBMC, as described above. On the day of the first restimulation cells are examined for specific proliferation to MBP. Briefly, 2×10^4 T cells and 1×10^5 irradiated autologous PBMC are cultured in triplicate, in 96-well round-bottom plates, in the presence of MBP. Cells are cultured for 2 days and pulsed with (^3H)-Thymidine at 0.4 μCi/well during the last 18 hours of the culture. Cells are then harvested as described above, and a TCL is considered to be MBP-specific with a δcpm>1000 and a SI>3.
Following 3 restimulation/expansion cycles TCL are cloned using PHA (Sigma, Poole, Dorset, UK)) in the presence of autologous irradiated PBMC as APC. T cells are plated under limiting dilution conditions at 0.1 cell/well, 0.3 cell/well and 1 cell/well and cultured in Terasaki plates (Nunc International, Costar) with 1×10^4 irradiated PBMC, 5 μg/ml PHA, and 2% IL-2. After 10-12 days, growth-positive wells are expanded onto 96-well round-bottom plates, using 1×10^5 irradiated PBMC, 5 μg/ml PHA and IL-2. Three days later wells are fed with fresh medium containing IL-2, and on day 7 the clones are expanded onto 48-well plates using 5×10^5 irradiated PBMC, PHA and IL-2; at this point clones are tested in proliferation assays for specific responses to MBP. MBP-specific clones are expanded a week later onto 24-well plates, using 1×10^6 irradiated PBMC with PHA or Dynabeads (Dynal, UK) and IL-2. The clones are maintained in 24-well plates using a 7-10 day restimulation/expansion cycle, essentially as described above. The ability of T cell clones (TCC) to recognize the panel of MBP peptides is tested by proliferation assays, as described above.
TCC are generated from 8 MS patients and 2 healthy individuals, and used to clarify the fine specificity of the peptide regions identified in the kinetic response assay. The specificity of each TCC is tested by its proliferative response to the panel of 15-mer peptides. Clone SD:A7 recognised region 1-24, and within this region this TCC responded to a.a. 5-19. Region 30-54 is recognised by 4 clones (MS49:D3, MS49:C8, MS49:A8, MS49:B6) and the epitope within this region is 30-44. […] Five clones (MS43:A7, MS41:B6, MS41:A2, MS41:C6, N5:8) recognize a.a. 83-99 which is contained in region 75-99. One patient produced TCC specific for a.a. 110-124 (MS60:A2, MS60:B3), contained within the 105-129 pool, and another TCC from the same patient is specific to 130-144 (MS60:E1), found within the 120-144 region. Five individuals produce clones which recognize epitopes within the region 135-159: MS60:F7, MS60:D1, MS59:F1 and N5:19 recognizes a.a. 140-154; MS57:A1 is specific to 140-149, and TCC MS17:A3 responds to sequence 130-144. […] Lastly, region 150-170 is recognized by 2 clones specific to a.a. 156-169.

[5] = system: splenocytes from double transgenic mice; test: Induction of tolerance with Apitope MS7 in HLA:DR2 / TCR MBP 82-100 double-transgenic mice, splenocyte proliferation; assay type: in vivo
Description: (§1) Groups of 6 or 7 age (8-12 weeks) and sex matched double transgenic mice were used. In the first experiment one group was treated ten times intranasally with 100 μg Apitope MS7 in […] at regular intervals over a period of three weeks. The control group received PBS alone. In the second experiment the same amount of peptide was given by subcutaneous/intradermal administration in […] PBS. The control group received the same volume of PBS.
Three days after the last administration of peptide or PBS, the spleens were harvested and cell suspensions prepared. The splenocytes were incubation with 0.5 or 5 μg/ml Apitope MS7, and assessed for proliferation by [^3H]-Thymidine incorporation after 48, 72 and 96 hours of culture. Results are expressed as stimulation indices (SI=counts per minute (cpm) of culture containing antigen/counts per minute without antigen).

[6] = system: fixed Mgar (HLA-DR2+ve) APC presenting to T cells from DR2:MBP 82-100 transgenic mouse; test: Antigen-presentation assay using an APIPS (fixed APC) with T cells from DR2:MBP82-100 transgenic mouse; assay type: cell-based; conditions: live or p-formaldehyde-fixed Mgar cells, 72 h
Description: Presentation of peptides to T cells isolated from DR2:MBP82-100 transgenic mouse was essentially as described above except APC were plated at 5×10^5 cells per well, T cells were plated at 1×10^5 cells per well, and incubation was allowed to proceed for 72 h prior to the addition of [^3H]-thymidine.
For any given epitope, there may exist one or more apitopes, capable of being presented to APC without further processing. The presence of apitopes within two regions of MBP is investigated by incubating live or p-formaldehyde-fixed Mgar (HLA-DR2+ve) cells are incubated with overlapping peptides in serum from MBP regions 77-100 (FIG. 12) and 125-148 (FIG. 13) or in serum alone. T cells were added and after 72 h (FIG. 12) or after 48 h (FIG. 13) the T cell proliferative response was measured by ^3H-thymidine uptake. For MBP 77-100, the T cells are isolated from a DR2:MBP 82-100 transgenic mouse, whereas for MBP 130-144 the T cell clone MS17:A3 is used.

[7] = system: splenocytes from double transgenic mice; test: Induction of tolerance with Apitope MS7 in double-transgenic mice, splenocyte cytokine ELISA; assay type: in vivo; conditions: 48 hr cultures; subcutaneous/intradermal treatment vs PBS
Description: as §1
In the second experiment, where tolerance induction was induced via the subcutaneous/intradermal route, cell culture supernatants from the splenocytes were collected at 48 and 72 hrs of culture, and assayed for the presence of IFN-γ and interleukin-2 (IL-2) using an enzyme linked immunosorbant assay (ELISA).

HLA-DR2 = HLA-DR2 binding of cocktail peptides; design: species or system human
[8] = system: MHC class I or II molecule; conditions: cited from earlier work
[9] = system: lymphocytes from HLA:DR2 (DRB1*1501) transgenic mice; test: Induction of tolerance with Apitope MS6 in HLA:DR2 transgenic mouse, lymph node cell proliferation; assay type: in vivo
Description: HLA:DR2 transgenic mice aged 8-12 weeks were used in the study. The mice were tolerized by pre-treatment with 100 μg of Apitope MS6 in […] phosphate buffered saline (PBS) or […] alone, by intranasal administration on days −8, −6 and −4 prior to immunisation on day 0.
Following tolerization, mice were immunised subcutaneously with […] an emulsion containing an equal volume of Complete Freund's Adjuvant (CFA) and PBS containing 200 μg of Apitope MS6 and 400 μg heat-killed Mycobacterium tuberculosis. A control group of mice, previously tolerized with PBS intranasally, were immunised without peptide.
At 10 days post subcutaneous immunisation, draining popliteal and inguinal lymph nodes were removed and T-cell activation was assessed by assaying the proliferation of T-cells in response to various concentrations of Apitope MS6. Proliferation was measured by [^3H]-Thymidine incorporation, and expressed as the stimulation index (SI=corrected counts per minute (ccpm) culture containing peptide/ccpm culture without peptide).

MBP 92-98: cryptic T cell epitope within MBP 89-101 (IRLFSRD; UniProt P02686 92-98, looked up, fragment)
T cell clones from mice primed with the 89-101 peptide responding ([1]; six clones generated): all six clones

MBP 89-101: myelin basic protein (MBP) peptide 89-101, immunodominant antigen, not tolerogenic (PHLIRLFSRDAPG; UniProt P02686 89-101, looked up, fragment)
binding affinity for I-A^S (I-A^S): relatively high affinity
effect of peptide as tolerogen on recall responses after priming with 87-96 ([2]; 200 μg i.p. days -8, -6, -4, priming 87-96 in CFA day 0, lymph node cells day 10): failed to inhibit recall responses to either 87-96 or 89-101
in vitro recall response after priming with 87-96 ([2]; PBS pre-treated mice, lymph node cells): weaker response
inducing tolerance when administered in solution ([3]; Anderton and Wraith (1998)): ineffective at inducing tolerance
prevention of / protection against EAE by peptide in soluble form ([3]; EAE induced with whole myelin or the 89-101 peptide): does not prevent; also recorded: fails to protect against EAE
immunogenicity: priming for T cell reactivity and induction of EAE ([3]; after immunisation): very effective immunogen
response of the three epitope-specific T cell lines (TCL) to the peptide ([1]; TCL specific for 89-94, 92-98, 95-101): All three TCL respond

H-Glu-Asn-Pro-Val-Val-His-Phe-Phe-Lys-Asn-Ile-Val-Thr-Pro-Arg-Thr-Pro-NH2 (H-ENPVVHFFKNIVTPRTP-NH2) [MBP 83-99]
T cell clones (TCC) recognising the peptide [4]: Five
mean SI of splenocyte proliferation, intranasal treatment ([5]; 72 hrs, cultures with 5 μg/ml 83-99, PBS control mean SI 89): 17
mean SI of splenocyte proliferation, subcutaneous treatment ([5]; PBS treated animals mean SI 124): 49
splenocyte proliferation after treatment, both routes ([5]; intranasal and subcutaneous/intradermal): striking reduction in proliferation
apitope within MBP region 77-100 [6]: shown to act as apitopes
IFNγ secretion in splenocyte culture supernatants [7]: impressive reduction in secretion
IL-2 secretion in splenocyte culture supernatants [7]: impressive reduction in secretion
HLA-DR2 binding (HLA-DR2): HLA-DR2 binding

H-Gly-Phe-Lys-Gly-Val-Asp-Ala-Gln-Gly-Thr-Leu-Ser-Lys-Ile-Phe-NH2 (H-GFKGVDAQGTLSKIF-NH2) [MBP 140-154]
T cell clones (TCC) recognising the peptide [4]: responded
T cell clones (TCC) recognising the peptide ([4]; listed as 140-154): recognizes
identified as apitope in WO 03/064464 [8]: apitopes
HLA-DR2 binding (HLA-DR2): HLA-DR2 binding
SI median of lymphocyte proliferation after intranasal pre-treatment ([9]; Group B, 100 μg intranasal days -8, -6, -4, recall peptide 150 μg/ml (PBS group SI median 2.5 to 10)): 3
tolerance induction in lymphocytes from HLA-DR2 mice ([9]; intranasal pre-treatment): has induced tolerance
